Assay results reported in patent US20260231994A1, “TASTE-ENHANCING COMPOSITION, METHOD FOR PRODUCING SAME, FOOD PRODUCT, AND METHOD FOR ENHANCING TASTE OF FOOD PRODUCT” (HOUSE FOODS GROUP INC., priority 2023, published 2026).

Assays:
Type in all cases: in vivo
[1] = Experiment 6 sensory evaluation of cyclic dipeptides, “top sharp saltiness”
Method: (§1) An aqueous solution in which the concentration of each of the cyclic dipeptides shown in the table described below is set to be the same as its concentration in the heat-treated coriander prepared in 1.1. described above, as estimated from the ratio of the peak area of the cyclic dipeptides to the peak area of the internal standard (47 μg/g of L-lysine-^13C6 monohydrochloride) (hereinafter referred to as “heat-treated coriander equivalent aqueous solution”) was prepared. An aqueous solution in which the concentration of each of the cyclic dipeptides is set to be the same as its concentration in the heat-treated paprika of Example 203 prepared in 2.1 described above (hereinafter referred to as “heat-treated paprika equivalent aqueous solution”) was also prepared. Cyclic dipeptides prepared by the applicant were used in this experiment. As a cyclic dipeptide comprising Leu/Ile, a mixture comprising equal parts of cyclic dipeptide comprising Leu and cyclic dipeptide comprising Ile was used.
(§2) Common and reduced-sodium curry rouxes were prepared according to the procedures described in (1) and (2) of 1.3. described above.
(§3) Two dispersions of 44 g of the aforesaid reduced-sodium curry roux dispersed in 300 g of hot water were prepared. To one of them was added the heat-treated coriander equivalent solution or heat-treated paprika equivalent aqueous solution of the individual cyclic dipeptides shown in the table described below so as to be in the final concentration of 0.5% (w/w) or 1.0% (w/w), respectively.
(§4) Forty-four grams of the aforesaid common curry roux was dispersed in 300 g of hot water.
(§5) The dispersion of reduced-sodium curry roux dispersed in hot water and the dispersion of common curry roux dispersed in hot water were used as comparative controls, and the strength of the flavor was evaluated by three evaluators on the basis of the following evaluation criteria from the viewpoint of “top sharp saltiness”, “middle fullness (enhanced thickness) and “boosting of last flavor (aftertaste).”
(§6) The average of the evaluated scores was defined as “F” when it was 1.0 or lower, “C” when it was 1.1 or higher and 1.9 or lower, “B” when it was 2.0 or higher and 2.5 or lower, “A” when it was 2.6 or higher and 2.9 or lower, and “AA” when it was 3.0 or higher.
(§7) In the table described below, “ID” refers to the compound ID described above. The items of “coriander 0.5%” and “coriander 1.0%” refer to the addition of the aforesaid heat-treated coriander equivalent aqueous solution of cyclic dipeptide so that the final concentrations may be 0.5% (w/w) and 1.0% (w/w), respectively. The items of “paprika 0.5%” and “paprika 1.0%” refer to the addition of the aforesaid heat-treated paprika equivalent aqueous solution of cyclic dipeptide so that the final concentration may be 0.5% (w/w) and 1.0% (w/w), respectively.

[2] = Experiment 6 sensory evaluation of cyclic dipeptides, “middle fullness (enhanced thickness)”
Method: as §1, §2, §3, §4, §5, §6, §7

[3] = Experiment 6 sensory evaluation of cyclic dipeptides, “boosting of last flavor (aftertaste)”
Method: as §1, §2, §3, §4, §5, §6, §7

[4] = Additive amount coriander 0.5% (heat-treated coriander equivalent aqueous solution, final 0.5% (w/w)), reduced-sodium curry roux
[5] = Additive amount coriander 0.5%, reduced-sodium curry roux
[6] = heat-treated coriander equivalent aqueous solution of cyclic dipeptide, final 1.0% (w/w) in reduced-sodium curry roux dispersion
[7] = heat-treated coriander equivalent aqueous solution of cyclic dipeptide, final 1.0% (w/w) in reduced-sodium curry roux dispersion, 3 evaluators
[8] = Additive amount paprika 0.5% (heat-treated paprika equivalent aqueous solution, final 0.5% (w/w)), reduced-sodium curry roux
[9] = Additive amount paprika 0.5%, reduced-sodium curry roux
[10] = heat-treated paprika equivalent aqueous solution of cyclic dipeptide, final 1.0% (w/w) in reduced-sodium curry roux dispersion
[11] = heat-treated paprika equivalent aqueous solution of cyclic dipeptide, final 1.0% (w/w) in reduced-sodium curry roux dispersion, 3 evaluators

## cyclic (Gly-Ser) [Coriander ID 5]
[1]; [4]
  Top sharp saltiness Average: 1.7 points
[1]; [5]
  Top sharp saltiness Evaluation: C (“C” when it was 1.1 or higher and 1.9 or lower)
[1]; [6]
  Top sharp saltiness Evaluation: C (“C” when it was 1.1 or higher and 1.9 or lower)
[1]; [7]
  Top sharp saltiness Average: 1.8 points
[2]; [5]
  Middle fullness Average: 2.0 points
  Middle fullness Evaluation: B (“B” when it was 2.0 or higher and 2.5 or lower)
[2]; [6]
  Middle fullness Evaluation: B (“B” when it was 2.0 or higher and 2.5 or lower)
[2]; [7]
  Middle fullness Average: 2.3 points
[3]; [5]
  Bosting of last flavor Average: 2.2 points
  Bosting of last flavor Evaluation: B (“B” when it was 2.0 or higher and 2.5 or lower)
[3]; [6]
  Bosting of last flavor Evaluation: B (“B” when it was 2.0 or higher and 2.5 or lower)
[3]; [7]
  Bosting of last flavor Average: 2.3 points

## cyclic (Gly-Thr) [Coriander ID 60]
[1]; [4]
  Top sharp saltiness Average: 3.3 points
[1]; [5]
  Top sharp saltiness Evaluation: AA (“AA” when it was 3.0 or higher)
[1]; [6]
  Top sharp saltiness Evaluation: B (“B” when it was 2.0 or higher and 2.5 or lower)
[1]; [7]
  Top sharp saltiness Average: 2.0 points
[2]; [5]
  Middle fullness Average: 3.2 points
  Middle fullness Evaluation: AA (“AA” when it was 3.0 or higher)
[2]; [6]
  Middle fullness Evaluation: A (“A” when it was 2.6 or higher and 2.9 or lower)
[2]; [7]
  Middle fullness Average: 2.7 points
[3]; [5]
  Bosting of last flavor Average: 3.2 points
  Bosting of last flavor Evaluation: AA (“AA” when it was 3.0 or higher)
[3]; [6]
  Bosting of last flavor Evaluation: B (“B” when it was 2.0 or higher and 2.5 or lower)
[3]; [7]
  Bosting of last flavor Average: 2.5 points

## cyclic (Gly-Tyr) [Coriander ID 44]
[1]; [4]
  Top sharp saltiness Average: 1.7 points
[1]; [5]
  Top sharp saltiness Evaluation: C (“C” when it was 1.1 or higher and 1.9 or lower)
[1]; [6]
  Top sharp saltiness Evaluation: B (“B” when it was 2.0 or higher and 2.5 or lower)
[1]; [7]
  Top sharp saltiness Average: 2.2 points
[2]; [5]
  Middle fullness Average: 2.0 points
  Middle fullness Evaluation: B (“B” when it was 2.0 or higher and 2.5 or lower)
[2]; [6]
  Middle fullness Evaluation: B (“B” when it was 2.0 or higher and 2.5 or lower)
[2]; [7]
  Middle fullness Average: 2.2 points
[3]; [5]
  Bosting of last flavor Average: 2.3 points
  Bosting of last flavor Evaluation: B (“B” when it was 2.0 or higher and 2.5 or lower)
[3]; [6]
  Bosting of last flavor Evaluation: A (“A” when it was 2.6 or higher and 2.9 or lower)
[3]; [7]
  Bosting of last flavor Average: 2.8 points

## cyclic (Leu/Ile-His) [Coriander ID 52]
[1]; [4]
  Top sharp saltiness Average: 3.3 points
[1]; [5]
  Top sharp saltiness Evaluation: AA (“AA” when it was 3.0 or higher)
[1]; [6]
  Top sharp saltiness Evaluation: B (“B” when it was 2.0 or higher and 2.5 or lower)
[1]; [7]
  Top sharp saltiness Average: 2.3 points
[2]; [5]
  Middle fullness Average: 3.2 points
  Middle fullness Evaluation: AA (“AA” when it was 3.0 or higher)
[2]; [6]
  Middle fullness Evaluation: A (“A” when it was 2.6 or higher and 2.9 or lower)
[2]; [7]
  Middle fullness Average: 2.7 points
[3]; [5]
  Bosting of last flavor Average: 2.8 points
  Bosting of last flavor Evaluation: A (“A” when it was 2.6 or higher and 2.9 or lower)
[3]; [6]
  Bosting of last flavor Evaluation: AA (“AA” when it was 3.0 or higher)
[3]; [7]
  Bosting of last flavor Average: 3.0 points

## cyclic (Leu/Ile-Leu/Ile) [Coriander ID 1]
[1]; [8]
  Top sharp saltiness Average: 2.7 points
[1]; [9]
  Top sharp saltiness Evaluation: A (“A” when it was 2.6 or higher and 2.9 or lower)
[1]; [10]
  Top sharp saltiness Evaluation: C (“C” when it was 1.1 or higher and 1.9 or lower)
[1]; [11]
  Top sharp saltiness Average: 1.7 points
[2]; [9]
  Middle fullness Average: 2.7 points
  Middle fullness Evaluation: A (“A” when it was 2.6 or higher and 2.9 or lower)
[2]; [10]
  Middle fullness Evaluation: C (“C” when it was 1.1 or higher and 1.9 or lower)
[2]; [11]
  Middle fullness Average: 1.8 points
[3]; [9]
  Bosting of last flavor Average: 3.0 points
  Bosting of last flavor Evaluation: AA (“AA” when it was 3.0 or higher)
[3]; [10]
  Bosting of last flavor Evaluation: B (“B” when it was 2.0 or higher and 2.5 or lower)
[3]; [11]
  Bosting of last flavor Average: 2.3 points

## cyclic (Leu/Ile-Ser) [Coriander ID 24]
[1]; [8]
  Top sharp saltiness Average: 2.9 points
[1]; [9]
  Top sharp saltiness Evaluation: A (“A” when it was 2.6 or higher and 2.9 or lower)
[1]; [10]
  Top sharp saltiness Evaluation: C (“C” when it was 1.1 or higher and 1.9 or lower)
[1]; [11]
  Top sharp saltiness Average: 1.7 points
[2]; [9]
  Middle fullness Average: 3.1 points
  Middle fullness Evaluation: AA (“AA” when it was 3.0 or higher)
[2]; [10]
  Middle fullness Evaluation: C (“C” when it was 1.1 or higher and 1.9 or lower)
[2]; [11]
  Middle fullness Average: 1.8 points
[3]; [9]
  Bosting of last flavor Average: 2.9 points
  Bosting of last flavor Evaluation: A (“A” when it was 2.6 or higher and 2.9 or lower)
[3]; [10]
  Bosting of last flavor Evaluation: B (“B” when it was 2.0 or higher and 2.5 or lower)
[3]; [11]
  Bosting of last flavor Average: 2.2 points

## cyclic (Phe-Asp) [Coriander ID 34]
[1]; [8]
  Top sharp saltiness Average: 3.0 points
[1]; [9]
  Top sharp saltiness Evaluation: AA (“AA” when it was 3.0 or higher)
[1]; [10]
  Top sharp saltiness Evaluation: AA (“AA” when it was 3.0 or higher)
[1]; [11]
  Top sharp saltiness Average: 3.2 points
[2]; [9]
  Middle fullness Average: 2.8 points
  Middle fullness Evaluation: A (“A” when it was 2.6 or higher and 2.9 or lower)
[2]; [10]
  Middle fullness Evaluation: AA (“AA” when it was 3.0 or higher)
[2]; [11]
  Middle fullness Average: 3.2 points
[3]; [9]
  Bosting of last flavor Average: 2.7 points
  Bosting of last flavor Evaluation: A (“A” when it was 2.6 or higher and 2.9 or lower)
[3]; [10]
  Bosting of last flavor Evaluation: AA (“AA” when it was 3.0 or higher)
[3]; [11]
  Bosting of last flavor Average: 3.2 points

## cyclic (Phe-Phe) [Coriander ID 43]
[1]; [4]
  Top sharp saltiness Average: 2.3 points
[1]; [5]
  Top sharp saltiness Evaluation: B (“B” when it was 2.0 or higher and 2.5 or lower)
[1]; [6]
  Top sharp saltiness Evaluation: A (“A” when it was 2.6 or higher and 2.9 or lower)
[1]; [7]
  Top sharp saltiness Average: 2.8 points
[2]; [5]
  Middle fullness Average: 2.3 points
  Middle fullness Evaluation: B (“B” when it was 2.0 or higher and 2.5 or lower)
[2]; [6]
  Middle fullness Evaluation: A (“A” when it was 2.6 or higher and 2.9 or lower)
[2]; [7]
  Middle fullness Average: 2.7 points
[3]; [5]
  Bosting of last flavor Average: 3.2 points
  Bosting of last flavor Evaluation: AA (“AA” when it was 3.0 or higher)
[3]; [6]
  Bosting of last flavor Evaluation: A (“A” when it was 2.6 or higher and 2.9 or lower)
[3]; [7]
  Bosting of last flavor Average: 2.7 points

## cyclic (Phe-Ser)
[1]; [8]
  Top sharp saltiness Average: 2.3 points
[1]; [9]
  Top sharp saltiness Evaluation: B (“B” when it was 2.0 or higher and 2.5 or lower)
[1]; [10]
  Top sharp saltiness Evaluation: B (“B” when it was 2.0 or higher and 2.5 or lower)
[1]; [11]
  Top sharp saltiness Average: 2.2 points
[2]; [9]
  Middle fullness Average: 2.8 points
  Middle fullness Evaluation: A (“A” when it was 2.6 or higher and 2.9 or lower)
[2]; [10]
  Middle fullness Evaluation: B (“B” when it was 2.0 or higher and 2.5 or lower)
[2]; [11]
  Middle fullness Average: 2.3 points
[3]; [9]
  Bosting of last flavor Average: 3.0 points
  Bosting of last flavor Evaluation: AA (“AA” when it was 3.0 or higher)
[3]; [10]
  Bosting of last flavor Evaluation: B (“B” when it was 2.0 or higher and 2.5 or lower)
[3]; [11]
  Bosting of last flavor Average: 2.3 points

## cyclic (Phe-Thr) [Coriander ID 37]
[1]; [8]
  Top sharp saltiness Average: 1.8 points
[1]; [9]
  Top sharp saltiness Evaluation: C (“C” when it was 1.1 or higher and 1.9 or lower)
[1]; [10]
  Top sharp saltiness Evaluation: B (“B” when it was 2.0 or higher and 2.5 or lower)
[1]; [11]
  Top sharp saltiness Average: 2.3 points
[2]; [9]
  Middle fullness Average: 2.5 points
  Middle fullness Evaluation: B (“B” when it was 2.0 or higher and 2.5 or lower)
[2]; [10]
  Middle fullness Evaluation: B (“B” when it was 2.0 or higher and 2.5 or lower)
[2]; [11]
  Middle fullness Average: 2.2 points
[3]; [9]
  Bosting of last flavor Average: 2.7 points
  Bosting of last flavor Evaluation: A (“A” when it was 2.6 or higher and 2.9 or lower)
[3]; [10]
  Bosting of last flavor Evaluation: B (“B” when it was 2.0 or higher and 2.5 or lower)
[3]; [11]
  Bosting of last flavor Average: 2.3 points
